Consider 15 molecules from US11986532B2 (Arvinas Operations, Inc., priority 2021, dated 2024).

For orientation: Dmax means the greatest extent of degradation seen. Broadly, the DC50 is the midpoint of the concentration-degradation curve.

In the assay the target is T1, BCL6 (Homo sapiens, UniProt P41182).
T1 construct: endogenous in cells; host or cells: T47D breast cancer epithelial cells
As to the kind of experiment: Immunofluorescence protocol for high content imaging of BCL6 (degradation) in T47D cells, 3 days compound treatment. The note with it: for Dmax: T47D, read-out: Mean Dmax (%)** category; for DC50: read-out: Mean DC50 (nM)* category. It counts as cell-based. The method, boiled down:
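T47D, RPMI1640/10% FBS; cpd 11-pt 3-fold, top 0.1 or 1 μM final; 3 d, 37° C. Fix 4% PFA, perm 0.1% Triton, block 3% BSA; anti-BCL6 1:300 o/n 4° C; Alexa-488 2°, CellMask-647, Hoechst. Imaged 10×, 4 fields/well.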

`CNC(=O)COc1cc2cc(Nc3cc(N4CCC(CN5CCC6(CC5)CN(c5ccc7c(c5F)CN(C5CCC(=O)NC5=O)C7=O)C6(C)C)CC4)ncc3Cl)ccc2n(C(C)C)c1=O` (stereo not shown) [Compound 229, 2-{[6-({5-chloro-2-[4-({2-[2-(2,6-dioxopiperidin-3-yl)-4-fluoro-1-oxo-2,3-dihydro-1H-isoindol-5-yl]-1,1-dimethyl-2,7-diazaspiro[3.5]nonan-7-yl}methyl)piperidin-1-yl]pyridin-4-yl}amino)-2-oxo-1-(propan-2-yl)-1,2-dihydroquinolin-3-yl]oxy}-N-methylacetamide]: the Dmax was not below 70% and the DC50 is less than 10 nM.

`CNC(=O)COc1cc2cc(Nc3cc(N4CCC(CN5CCC6(CC5)CN(c5ccc7c(c5OC)CN(C5CCC(=O)NC5=O)C7=O)C6(C)C)CC4)ncc3Cl)ccc2n(C(C)C)c1=O` (stereo not shown) [Compound 230, 2-{[6-({5-chloro-2-[4-({2-[2-(2,6-dioxopiperidin-3-yl)-4-methoxy-1-oxo-2,3-dihydro-1H-isoindol-5-yl]-1,1-dimethyl-2,7-diazaspiro[3.5]nonan-7-yl}methyl)piperidin-1-yl]pyridin-4-yl}amino)-2-oxo-1-(propan-2-yl)-1,2-dihydroquinolin-3-yl]oxy}-N-methylacetamide]: the half-maximal degradation concentration (DC50) is less than 10 nM.

For `CNC(=O)COc1cc2cc(Nc3cc(N4CCC(CN5CCC6(CN(c7ccc8c(c7)CN(C7CCC(=O)NC7=O)C8=O)C6)C(F)(F)C5)CC4)ncc3Cl)ccc2n(C(C)C)c1=O` (stereo not shown) [Compound 231, 2-{[6-({5-chloro-2-[4-({2-[2-(2,6-dioxopiperidin-3-yl)-1-oxo-2,3-dihydro-1H-isoindol-5-yl]-5,5-difluoro-2,7-diazaspiro[3.5]nonan-7-yl}methyl)piperidin-1-yl]pyridin-4-yl}amino)-2-oxo-1-(propan-2-yl)-1,2-dihydroquinolin-3-yl]oxy}-N-methylacetamide], the maximal degradation (Dmax) lay within 50 to 70% and the DC50 is less than 10 nM.

With `CNC(=O)COc1cc2cc(Nc3cc(N4CCC(CN5CCC6(CN(c7ccc8c(c7OC)CN(C7CCC(=O)NC7=O)C8=O)C6)C(F)(F)C5)CC4)ncc3Cl)ccc2n(C(C)C)c1=O` (stereo not shown) [Compound 232, 2-{[6-({5-chloro-2-[4-({2-[2-(2,6-dioxopiperidin-3-yl)-4-methoxy-1-oxo-2,3-dihydro-1H-isoindol-5-yl]-5,5-difluoro-2,7-diazaspiro[3.5]nonan-7-yl}methyl)piperidin-1-yl]pyridin-4-yl}amino)-2-oxo-1-(propan-2-yl)-1,2-dihydroquinolin-3-yl]oxy}-N-methylacetamide], the half-maximal degradation concentration (DC50) is less than 10 nM.

For the molecule `CNC(=O)COc1cc2cc(Nc3cc(N4CCC(CN5CCC6(CC5)CN(c5ccc7c(c5)CN(C5CCC(=O)NC5=O)C7=O)C6(C)C)CC4)ncc3Cl)ccc2n(C(C)C)c1=O` (stereo not shown) [Compound 233, 2-{[6-({5-chloro-2-[4-({2-[2-(2,6-dioxopiperidin-3-yl)-1-oxo-2,3-dihydro-1H-isoindol-5-yl]-1,1-dimethyl-2,7-diazaspiro[3.5]nonan-7-yl}methyl)piperidin-1-yl]pyridin-4-yl}amino)-2-oxo-1-(propan-2-yl)-1,2-dihydroquinolin-3-yl]oxy}-N-methylacetamide], the maximal degradation (Dmax) was 50 to 70% and the DC50 is less than 10 nM.

With `CNC(=O)COc1cc2cc(Nc3nc(N4CCC(N5CCC56CN(C5CCN(c7ccc8c(c7)CN(C7CCC(=O)NC7=O)C8=O)C5)C6)CC4)ncc3Cl)ccc2n(C(C)C)c1=O` (stereo not shown) [Compound 234, 2-{[6-({5-chloro-2-[4-(6-{1-[2-(2,6-dioxopiperidin-3-yl)-1-oxo-2,3-dihydro-1H-isoindol-5-yl]pyrrolidin-3-yl}-1,6-diazaspiro[3.3]heptan-1-yl)piperidin-1-yl]pyrimidin-4-yl}amino)-2-oxo-1-(propan-2-yl)-1,2-dihydroquinolin-3-yl]oxy}-N-methylacetamide], the Dmax was 50 to 70% and the DC50 was less than 10 nM.

For the molecule `CNC(=O)COc1cc2cc(Nc3nc(N4CCC(N5CCC6(C5)CN(C5CCN(c7ccc8c(c7)CN(C7CCC(=O)NC7=O)C8=O)CC5)C6)CC4)ncc3Cl)ccc2n(C(C)C)c1=O` (stereo not shown) [Compound 235, 2-{[6-({5-chloro-2-[4-(2-{1-[2-(2,6-dioxopiperidin-3-yl)-1-oxo-2,3-dihydro-1H-isoindol-5-yl]piperidin-4-yl}-2,6-diazaspiro[3.4]octan-6-yl)piperidin-1-yl]pyrimidin-4-yl}amino)-2-oxo-1-(propan-2-yl)-1,2-dihydroquinolin-3-yl]oxy}-N-methylacetamide], the Dmax is 50 to 70% and the DC50 was less than 10 nM.

Consider `CNC(=O)COc1cc2cc(Nc3nc(N4CCC(N5CCC6(CN(CC7CCN(c8ccc9c(c8)CN(C8CCC(=O)NC8=O)C9=O)CC7)C6)C5)CC4)ncc3Cl)ccc2n(C(C)C)c1=O` (stereo not shown) [Compound 236, 2-({6-[(5-chloro-2-{4-[2-({1-[2-(2,6-dioxopiperidin-3-yl)-1-oxo-2,3-dihydro-1H-isoindol-5-yl]piperidin-4-yl}methyl)-2,6-diazaspiro[3.4]octan-6-yl]piperidin-1-yl}pyrimidin-4-yl)amino]-2-oxo-1-(propan-2-yl)-1,2-dihydroquinolin-3-yl}oxy)-N-methylacetamide], for which the Dmax fell in the range of 50 to 70% and the DC50 was less than 10 nM.

Regarding `CNC(=O)COc1cc2cc(Nc3cc(N4CCC(CN5CCC6(CN(c7ccc8c(c7F)CN(C7CCC(=O)NC7=O)C8=O)C6)C(F)(F)C5)CC4)ncc3Cl)ccc2n(C(C)C)c1=O` (stereo not shown) [Compound 237, 2-{[6-({5-chloro-2-[4-({2-[2-(2,6-dioxopiperidin-3-yl)-4-fluoro-1-oxo-2,3-dihydro-1H-isoindol-5-yl]-5,5-difluoro-2,7-diazaspiro[3.5]nonan-7-yl}methyl)piperidin-1-yl]pyridin-4-yl}amino)-2-oxo-1-(propan-2-yl)-1,2-dihydroquinolin-3-yl]oxy}-N-methylacetamide], the Dmax lay in the range of 50 to 70% and the 50% degradation concentration (DC50) is less than 10 nM.

`CNC(=O)COc1cc2cc(Nc3nc(N4CCC(N5CCC56CN(C5CCN(c7ccc8c(c7)CN(C7CCC(=O)NC7=O)C8=O)CC5)C6)CC4)ncc3Cl)ccc2n(C(C)C)c1=O` (stereo not shown) [Compound 238, 2-{[6-({5-chloro-2-[4-(6-{1-[2-(2,6-dioxopiperidin-3-yl)-1-oxo-2,3-dihydro-1H-isoindol-5-yl]piperidin-4-yl}-1,6-diazaspiro[3.3]heptan-1-yl)piperidin-1-yl]pyrimidin-4-yl}amino)-2-oxo-1-(propan-2-yl)-1,2-dihydroquinolin-3-yl]oxy}-N-methylacetamide]: the Dmax was 50 to 70% and the DC50 is less than 10 nM.

Regarding `CNC(=O)COc1cc2cc(Nc3nc(N4CCC(CN5CCC6(CN(c7ccc8c(c7)C(=O)N(C7CCC(=O)NC7=O)C8=O)C6)CC5(C)C)CC4)ncc3Cl)ccc2n(C(C)C)c1=O` (stereo not shown) [Compound 239, 2-{[6-({5-chloro-2-[4-({2-[2-(2,6-dioxopiperidin-3-yl)-1,3-dioxo-2,3-dihydro-1H-isoindol-5-yl]-6,6-dimethyl-2,7-diazaspiro[3.5]nonan-7-yl}methyl)piperidin-1-yl]pyrimidin-4-yl}amino)-2-oxo-1-(propan-2-yl)-1,2-dihydroquinolin-3-yl]oxy}-N-methylacetamide], the Dmax was not below 70% and the DC50 is less than 10 nM.

With `CNC(=O)COc1cc2cc(Nc3cc(N4CCC(F)(CN5CCC6(CC5)CN(c5ccc7c(c5)CN(C5CCC(=O)NC5=O)C7=O)C6(C)C)CC4)ncc3Cl)ccc2n(C(C)C)c1=O` (stereo not shown) [Compound 240, 2-{[6-({5-chloro-2-[4-({2-[2-(2,6-dioxopiperidin-3-yl)-1-oxo-2,3-dihydro-1H-isoindol-5-yl]-1,1-dimethyl-2,7-diazaspiro[3.5]nonan-7-yl}methyl)-4-fluoropiperidin-1-yl]pyridin-4-yl}amino)-2-oxo-1-(propan-2-yl)-1,2-dihydroquinolin-3-yl]oxy}-N-methylacetamide], the Dmax was not below 70% and the DC50 is less than 10 nM.

For `CNC(=O)COc1cc2cc(Nc3nc(N4CCC(CN5CC(N6CCN(c7ccc8c(c7)C(=O)N(C7CCC(=O)NC7=O)C8=O)CC6)C5)CC4)ncc3Cl)ccc2n(C(C)C)c1=O` (stereo not shown) [Compound 241, 2-({6-[(5-chloro-2-{4-[(3-{4-[2-(2,6-dioxopiperidin-3-yl)-1,3-dioxo-2,3-dihydro-1H-isoindol-5-yl]piperazin-1-yl}azetidin-1-yl)methyl]piperidin-1-yl}pyrimidin-4-yl)amino]-2-oxo-1-(propan-2-yl)-1,2-dihydroquinolin-3-yl}oxy)-N-methylacetamide], the Dmax was not below 70% and the DC50 lay within 10 to 50 nM.

On to `CNC(=O)COc1cc2cc(Nc3nc(N4CCC(CN5CC(N6CCN(c7ccc8c(c7)CN(C7CCC(=O)NC7=O)C8=O)CC6)C5)CC4)ncc3Cl)ccc2n(C(C)C)c1=O` (stereo not shown) [Compound 242, 2-({6-[(5-chloro-2-{4-[(3-{4-[2-(2,6-dioxopiperidin-3-yl)-1-oxo-2,3-dihydro-1H-isoindol-5-yl]piperazin-1-yl}azetidin-1-yl)methyl]piperidin-1-yl}pyrimidin-4-yl)amino]-2-oxo-1-(propan-2-yl)-1,2-dihydroquinolin-3-yl}oxy)-N-methylacetamide], for which the Dmax is not below 70% and the DC50 is less than 10 nM.

Consider `CNC(=O)COc1cc2cc(Nc3cc(N4CCC(O[C@H]5C[C@H](N6CCC(c7ccc8c(c7)C(=O)N(C7CCC(=O)NC7=O)C8=O)CC6)C5)CC4)ncc3Cl)ccc2n(C(C)C)c1=O` (stereo partly shown) [Compound 243, 2-({6-[(5-chloro-2-{4-[(1r,3r)-3-{4-[2-(2,6-dioxopiperidin-3-yl)-1,3-dioxo-2,3-dihydro-1H-isoindol-5-yl]piperidin-1-yl}cyclobutoxy]piperidin-1-yl}pyridin-4-yl)amino]-2-oxo-1-(propan-2-yl)-1,2-dihydroquinolin-3-yl}oxy)-N-methylacetamide], for which the Dmax was less than 50% and the DC50 fell in the range of 10 to 50 nM.
